In US7524844B2, “Dipeptidyl peptidase IV inhibitors, process for their preparation and compositions containing them” (Glenmark Pharmaceuticals S.A., priority 2004, dated 2009):
Structures can show the parent of a compound that is named as a salt.

target: T1, human recombinant Dipeptidyl peptidase IV enzyme (DPP-IV) (Homo sapiens, UniProt P27487); experiment: in-vitro DPP-IV assay (cleavage of AMC from Gly-Pro-AMC); format: biochemical; conditions: human recombinant DPP-IV, Gly-Pro-AMC substrate, 30° C., 30 minutes; read-out: DPP-IV inhibition using human recombinant DPP-IV enzyme, IC50
T1 construct: purchased R&D Systems Inc. of Minneapolis, Minn
Experimental: DPP-IV activity was determined by the cleavage rate of 7-amino-4-methyl coumarin (AMC) from the synthetic substrate Glycyl-Prolyl-AMC. In brief, the assay was conducted by adding 10 ng of human recombinant Dipeptidyl peptidase IV enzyme (DPP-IV, available commercially from R&D Systems Inc. of Minneapolis, Minn.) in 50 μl of the assay buffer (25 mM Tris, pH 7.4, 140 mM NaCl, 10 mM KCl, 1% BSA) to 96 well black flat bottom microtiter plates. The reaction was initiated by adding 50 μl of 100 μM substrate Gly-Pro-AMC. The incubation was carried out in the kinetic mode at 30° C. for 30 minutes. Fluorescence was measured using Fluorostar with an excitation filter of 380 nm and emission filter of 460 nm. Test compounds and solvent controls were added as 1 μl additions. A standard curve of free amino methyl coumarin (AMC) was generated using 0-100 μM AMC in the assay buffer. The curve generated, which was linear was used for the interpolation of catalytic activity.
Test compounds dissolved in DMSO at 5-6 concentrations were tested in duplicate along with the solvent control and blank samples. Percent inhibition was calculated at each concentration with respect to the solvent control sample (no test compound added). […]

T1 sequence (P27487 whole entry): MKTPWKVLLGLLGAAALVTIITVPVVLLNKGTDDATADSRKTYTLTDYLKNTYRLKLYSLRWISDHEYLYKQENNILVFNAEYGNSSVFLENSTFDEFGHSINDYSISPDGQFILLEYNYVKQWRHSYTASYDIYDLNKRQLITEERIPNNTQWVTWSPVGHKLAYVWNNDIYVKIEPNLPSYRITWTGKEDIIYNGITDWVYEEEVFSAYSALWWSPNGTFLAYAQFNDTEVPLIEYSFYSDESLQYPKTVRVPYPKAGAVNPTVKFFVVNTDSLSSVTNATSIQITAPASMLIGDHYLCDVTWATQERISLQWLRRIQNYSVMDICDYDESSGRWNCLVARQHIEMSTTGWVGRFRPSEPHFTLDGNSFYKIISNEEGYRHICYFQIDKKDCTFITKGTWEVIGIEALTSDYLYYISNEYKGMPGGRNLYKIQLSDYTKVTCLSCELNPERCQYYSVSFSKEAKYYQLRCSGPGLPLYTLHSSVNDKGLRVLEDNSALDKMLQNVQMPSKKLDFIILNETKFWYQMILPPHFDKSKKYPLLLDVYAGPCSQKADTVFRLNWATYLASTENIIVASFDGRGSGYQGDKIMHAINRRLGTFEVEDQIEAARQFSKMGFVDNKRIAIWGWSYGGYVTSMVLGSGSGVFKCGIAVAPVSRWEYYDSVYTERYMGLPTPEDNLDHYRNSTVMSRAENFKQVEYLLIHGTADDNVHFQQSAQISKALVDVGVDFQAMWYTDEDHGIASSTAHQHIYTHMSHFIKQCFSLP

Row | Structure (SMILES) | IC50 [nM]
1 | N#C[C@@H]1CCCN1C(=O)CN[C@H]1CC[C@@H](CN2CCN(c3ccccc3)CC2)C1 [Example-23, (2S)-1-{2-[(1S,3R)-3-(4-Phenylpiperazinomethyl)cyclopentylamino]acetyl}-pyrrolidine-2-carbonitrile] | 32
2 | Cc1ccc(C)n1C[C@H]1CC[C@@H](NCC(=O)N2C[C@@H](F)C[C@H]2C#N)C1 [Example-25, (2S,4S)-1-{2-[(3S,1R)-3-(2,5-Dimethyl-1H-1-pyrrolylmethyl)cyclopentylamino]-acetyl}-4-fluoropyrrolidine-2-carbonitrile] | 7.4
3 | N#C[C@@H]1CCCN1C(=O)CN[C@H]1CC[C@@H](Cn2cccn2)C1 [Example-28, (2S)-1-{2-[(1S,3R)-3-(1H-Pyrazol-1-ylmethyl)cyclopentylamino]acetyl}pyrrolidine-2-carbonitrile] | 37.3
4 | N#C[C@@H]1CCCN1C(=O)CN[C@@H]1C=C[C@H](Cn2cncn2)C1 [Example-35] | 68.3
5 | N#C[C@@H]1CCCN1C(=O)CN[C@@H]1CC[C@H](Cn2cncn2)C1 [Example-39, (2S)-1-{2-[(3S,1R)-3-(1H-1,2,4-Triazol-1-ylmethyl)cyclopentylamino]acetyl}-pyrrolidine-2-carbonitrile maleate] | 5.05
6 | N#C[C@@H]1CCCN1C(=O)CN[C@H]1CC[C@@H](Cn2cncn2)C1 [Example-40, (2S)-1-{2-[(3R,1S)-3-(1H-1,2,4-Triazol-1-ylmethyl)cyclopentylamino]acetyl}-pyrrolidine-2-carbonitrile] | 12.5
7 | N#C[C@@H]1C[C@H](F)CN1C(=O)CN[C@@H]1CC[C@H](Cn2cncn2)C1 [Example-43, (2S,4S)-1-{2-[(3S,1R)-3-(1H-1,2,4-Triazol-1-ylmethyl)cyclopentylamino]acetyl}-4-fluoropyrrolidine-2-carbonitrile hydrochloride] | 6.25
8 | N#C[C@@H]1C[C@H](F)CN1C(=O)CN[C@@H]1CC[C@H](Cn2cncn2)C1 [Example-44, (2S,4S)-1-{2-1(3S,1R)-3-(1H-1,2,4-Triazol-1-ylmethyl)cyclopentylamino]acetyl}-4-fluoropyrrolidine-2-carbonitrile methanesulfonate] | 3.73
9 | N#C[C@@H]1C[C@H](F)CN1C(=O)CN[C@@H]1CC[C@H](Cn2cncn2)C1 [Example-46, (2S,4S)-1-{2-[(3S,1R)-3-(1H-1,2,4-Triazol-1-ylmethyl)cyclopentylamino]acetyl}-4-fluoropyrrolidine-2-carbonitrile succinate] | 4.37
10 | N#C[C@@H]1C[C@H](F)CN1C(=O)CN[C@@H]1CC[C@@H](Cn2cncn2)C1 [Example-53, (2S,4S)-4-Fluoro-1-{2-[(1R,3R)-3-(1H-1,2,4-Triazol-1-ylmethyl)cyclopentylamino]-acetyl}pyrrolidin-2-carbonitrile] | 5.12
11 | N#C[C@@H]1C[C@H](F)CN1C(=O)CN[C@H]1CC[C@@H](Cn2ccnn2)C1 [Example-57] | 5.88
12 | N#C[C@@H]1C[C@H](F)CN1C(=O)CN[C@H]1CC[C@@H](Cn2nccn2)C1 [Example-58, (2S,4S)-1-{2-[(1S,3R)-3-(2H-1,2,3-Triazol-2-ylmethyl)cyclopentylamino]acetyl}-4-fluoropyrrolidine-2-carbonitrile] | 10.6
13 | N#C[C@@H]1CCCN1C(=O)CN[C@@H]1CC[C@H](Cn2nnc(-c3ccc(F)cc3)n2)C1 [Example-62, (2S)-1-(2-{(3S,1R)-3-[5-(4-Fluorophenyl)-2H-1,2,3,4-tetrazol-2-ylmethyl]cyclo-pentylamino}acetyl)pyrrolidine-2-carbonitrile] | 8.73
14 | N#C[C@@H]1CCCN1C(=O)CN[C@@H]1CC[C@H](CN2CCc3ccccc32)C1 [Example-63] | 21.9
15 | N#C[C@@H]1CCCN1C(=O)CN[C@@H]1CC[C@H](CN2Cc3ccccc3C2)C1 [Example-65, (2S)-1-{2-[(3S,1R)-3-(2,3-Dihydro-1H-2-isoindolylmethyl)cyclopentylamino]acetyl}-pyrrolidine-2-carbonitrile] | 13.2
16 | N#C[C@@H]1CCCN1C(=O)CN[C@H]1CC[C@@H](Cn2cc3ccccc3n2)C1 [Example-68, (2S)-1-{2-[(1S,3R)-3-(2H-Indazol-2-ylmethyl)cyclopentylamino]acetyl}pyrrolidin-2-carbonitrile] | 19.2
17 | N#C[C@@H]1CCCN1C(=O)CN[C@@H]1CC[C@H](Cn2nnc3ccccc32)C1 [Example-70, (2S)-1-{2-[(3S,1R)-3-(2H-Benzo[d][1,2,3]triazol-1-ylmethyl)cyclopentylamino]-acetyl}pyrrolidine-2-carbonitrile] | 3.43

The remaining compounds from weak to strong by IC50, led by results:

Row | IC50 [nM] | Structure (SMILES)
18 | 78.9 | N#C[C@@H]1CCCN1C(=O)CN[C@H]1CC[C@@H](Cn2nccn2)C1 [Example-56, (2S)-1-{2-[(1S,3R)-3-(2H-1,2,3-Triazol-2-ylmethyl)cyclopentylamino]acetyl}-pyrrolidine-2-carbonitrile]
19 | 22.3 | N#C[C@@H]1CCCN1C(=O)CN[C@H]1CC[C@@H](Cn2ncc3ccccc32)C1 [Example-67, (2S)-1-{2-[(1S,3R)-3-(1H-Indazol-1-ylmethyl)cyclopentylamino]acetyl}pyrrolidin-2-carbonitrile]
20 | 11.4 | N#C[C@@H]1CCCN1C(=O)CN[C@H]1CC[C@@H](Cn2cnnn2)C1 [Example-61, (2S)-1-{2-[(1S,3R)-3-(1H-1,2,3,4-Tetrazol-1-ylmethyl)cyclopentylamino]acetyl}-pyrrolidine-2-carbonitrile]
21 | 11.2 | N#C[C@@H]1CCCN1C(=O)CN[C@@H]1CC[C@H](Cn2ccnc2)C1 [Example-29, (2S)-1-{2-[(3S,1R)-3-(1H-1-Imidazolylmethyl)cyclopentylamino]acetyl}pyrrolidine-2-carbonitrile]
22 | 9.36 | N#Cc1ncn(C[C@H]2CC[C@@H](NCC(=O)N3CCC[C@H]3C#N)C2)c1C#N [Example-34, 1-((1S,3R)-3-{2-[(2S)-2-Cyanopyrrolidin-1-yl]-2-oxoethylamino}cyclopentylmethyl)-1H-4,5-imidazoledicarbonitrile]
23 | 9.12 | N#C[C@@H]1CCCN1C(=O)CN[C@@H]1CC[C@H](Cn2cnnn2)C1 [Example-59, (2S)-1-{2-[(3S,1R)-3-[1H-1 ,2,3,4-Tetrazol-1-ylmethyl]cyclopentylamino]acetyl}-pyrrolidine-2-carbonitrile]
24 | 5.94 | N#Cc1cccn1C[C@H]1CC[C@@H](NCC(=O)N2CCC[C@H]2C#N)C1 [Example-26, 1-((1S,3R)-3-{2-[(2S)-2-Cyanopyrrolidin-1-yl]-2-oxoethylamino}cyclopentylmethyl)-1H-pyrrole-2-carbonitrile]
25 | 5.81 | N#Cc1cn(C[C@H]2CC[C@@H](NCC(=O)N3C[C@@H](F)C[C@H]3C#N)C2)c2ccccc12 [Example-64, 1-((1S,3R)-3-{2-[(2S,4S)-2-Cyano-4-fluoropyrrolidin-1-yl]-2-oxoethylamino}cyclo-pentylmethyl)-1H-3-indolecarbonitrile]
26 | 5.1 | N#C[C@@H]1CCCN1C(=O)CN[C@@H]1CC[C@H](Cn2cncn2)C1 [Example-37, (2S)-1-{2-[(3S,1R)-3-(1H-1,2,4-Triazol-1-ylmethyl)cyclopentylamino]acetyl}-pyrrolidine-2-carbonitrile]
27 | 4.63 | N#C[C@@H]1C[C@H](F)CN1C(=O)CN[C@@H]1CC[C@H](Cn2cncn2)C1 [Example-45, (2S,4S)-1-{2-[(3S,1R)-3-(1H-1,2,4-Triazol-1-ylmethyl)cyclopentylamino]acetyl}-4-fluoropyrrolidine-2-carbonitrile oxalate]
28 | 4.45 | N#C[C@@H]1CCCN1C(=O)CN[C@@H]1CC[C@H](Cn2cnc3ccccc32)C1 [Example-69, (2S)-1-{2-[(3S,1R)-3-(1H-Benzo[d]imidazol-1-ylmethyl)cyclopenylamino]acetyl}-pyrrolidine-2-carbonitrile]
29 | 4.19 | Cc1ccc(C)n1C[C@H]1CC[C@@H](NCC(=O)N2CCC[C@H]2C#N)C1 [Example-24, (2S)-1-{2-[(3S,1R)-3-(2,5-Dimethyl-1H-1-pyrrolylmethyl)cyclopentylamino}acetyl}-pyrrolidine-2-carbonitrile]
30 | 4.12 | N#C[C@@H]1CCCN1C(=O)CN[C@@H]1CC[C@H](Cn2cnnn2)C1 [Example-60, (2S)-1-{2-[(3S,1R)-3-(1H-1,2,3,4-Tetrazol-1-ylmethyl)cyclopentylamino]acetyl}-pyrrolidine-2-carbonitrile maleate]
31 | 3.54 | N#C[C@@H]1C[C@H](F)CN1C(=O)CN[C@H]1CC[C@@H](Cn2cncn2)C1 [Example-52, (2S,4S)-1-{2-[(1S,3R)-3-(1H-1,2,4-Triazol-1-ylmethyl)cyclopentylamino]acetyl}-4-fluoropyrrolidine-2-carbonitrile]
32 | 3.22 | N#C[C@@H]1C[C@H](F)CN1C(=O)CN[C@@H]1CC[C@H](Cn2cncn2)C1 [Example-49, (2S,4S)-1-{2-[(3S,1R)-3-(1H-1,2,4-Triazol-1-ylmethyl)cyclopentylamino]acetyl}-4-fluoropyrrolidine-2-carbonitrile salicylate]
33 | 1.61 | N#C[C@@H]1C[C@H](F)CN1C(=O)CN[C@@H]1CC[C@H](Cn2cncn2)C1 [Example-42, (2S,4S)-1-{2-[(3S,1R)-3-(1H-1,2,4-Triazol-1-ylmethyl)cyclopentylamino]acetyl}-4-fluoropyrrolidine-2-carbonitrile]
